Measurements from patent publication US6683211B1, “Phenyl-propargylether derivatives” (priority 2000, dated 2004).

Tests used:
Plasmopara viticola [1] = assay: D-1b) residual-curative action against Plasmopara viticola on vines; type: in vivo; conditions: Plasmopara viticola, 144 h; 200 ppm; test D-1b) residual-curative; vine seedlings; evaluated 6 days after infection; read-out: inhibit fungal infestations
Description: (§1) D-1: Action Against Plasmopara viticola on Vines
b) Residual-curative Action
Vine seedlings are infected at the 4- to 5-leaf stage with a sporangia suspension of the fungus. After incubation for 24 hours in a humidity chamber at 95-100% relative humidity and +20° C., the infected plants are dried and sprayed with a spray mixture (0.02% active ingredient) prepared from a wettable powder formulation of the test compound. After the spray coating has dried, the treated plants are placed in the humidity chamber again.
Fungus infestation is evaluated 6 days after infection.

Phytophthora [2] = assay: D-2b) systemic action against Phytophthora on tomato plants; type: in vivo; conditions: Phytophthora, 96 h; 200 ppm; test D-2b) systemic (soil watering), evaluated after 4 days, read-out: inhibit fungal infestations
Description: (§2) D-2: Action Against Phytophthora on Tomato Plants
After a cultivation period of 3 weeks, tomato plants are watered with a spray mixture (0.02% active ingredient based on the volume of the soil) prepared from a wettable powder formulation of the test compound. […] After 96 hours, the treated plants are infected with a sporangia suspension of the fungus. Fungus infestation is evaluated after incubation of the infected plants for 4 days at 90-100% relative humidity and +20° C. […] Compounds E1.003, E1.004, E1.009, E1.011, E1.012, E1.014, E1.018, E1.019, E1.020, E1.021, E1.022, E1.023, E1.025, E1.031, E1.032, E1.033, E1.038, E1.040, E1.044, E1.045, E1.049, E1.050, E1.053, E1.055, E1.057, E1.064, E1.085, E1.089, E1.090, E1.091, E1.102, E1.08, E1.110, E1.112, E1.121, E1.125, E1.129, E1.139 and E1.141 at 200 ppm inhibit fungal infestations in both tests D-2a) and D-2b) by 80-100%.

Plasmopara viticola [3] = assay: D-1a) residual-protective action against Plasmopara viticola on vines; type: in vivo; conditions: Plasmopara viticola, 144 h; 200 ppm; test D-1a) residual-protective; vine seedlings; evaluated after 6 days; read-out: inhibit fungal infestations
Description: as §1
(§3) a) Residual-protective Action
Vine seedlings are sprayed at the 4- to 5-leaf stage with a spray mixture (0.02% active ingredient) prepared from a wettable powder formulation of the test compound. After 24 hours, the treated plants are infected with a sporangia suspension of the fungus. Fungus infestation is evaluated after incubation for 6 days at 95-100% relative humidity and +20° C.

Phytophthora [4] = assay: D-2a) residual-protective action against Phytophthora on tomato plants; type: in vivo; conditions: Phytophthora, 120 h; 200 ppm; test D-2a) residual-protective, evaluated after 5 days, read-out: inhibit fungal infestations
Description: as §2, §3
After a cultivation period of 3 weeks, tomato plants are sprayed with a spray mixture (0.02% active ingredient) prepared from a wettable powder formulation of the test compound. After 48 hours, the treated plants are infected with a sporangia suspension of the fungus. Fungus infestation is evaluated after incubation of the infected plants for 5 days at 90-100% relative humidity and +20° C.

Phytophthora [5] = assay: D-3b) systemic action against Phytophthora on potato plants; type: in vivo; conditions: Phytophthora, 96 h; 200 ppm; test D-3b) systemic (soil watering); potato plants (Bintje); evaluated after 4 days; read-out: inhibit fungal infestations
Description: (§4) D-3: Action Against Phytophthora on Potato Plants
2-3 week old potato plants (Bintje variety) are watered with a spray mixture (0.02% active ingredient based on the volume of the soil) prepared from a wettable powder formulation of the test compound. […] After 48 hours, the treated plants are infected with a sporangia suspension of the fungus. Fungus infestation is evaluated after incubation of the infected plants for 4 days at 90-100% relative humidity and +20° C. Fungal infestation is effectively controlled with compounds of Tables 1 to 35. Compounds E1.003, E1.004, E1.009, E1.011, E1.012, E1.019, E1.020, E1.021, E1.022, E1.025, E1.031, E1.032, E1.033, E1.038, E1.045, E1.049, E1.050, E1.053, E1.085, E1.089, E1.090, E1.091, E1.102, E1.110, E1.112, E1.121, E1.125, E1.129 at 200 ppm inhibit fungal infestations in both tests D-3a) and D-3b) by 80-100%.

Phytophthora [6] = assay: D-3a) residual-protective action against Phytophthora on potato plants; type: in vivo; conditions: Phytophthora, 96 h; 200 ppm; test D-3a) residual-protective; potato plants (Bintje); evaluated after 4 days; read-out: inhibit fungal infestations
Description: as §4, §3
2-3 week old potato plants (Bintje variety) are sprayed with a spray mixture (0.02% active ingredient) prepared from a wettable powder formulation of the test compound. After 48 hours, the treated plants are infected with a sporangia suspension of the fungus. Fungus infestation is evaluated after incubation of the infected plants for 4 days at 90-100% relative humidity and +20° C.

| Compound | melting point [°C] | inhibition at 200 ppm (Plasmopara viticola [1]) [%] | inhibition at 200 ppm (Phytophthora [2]) [%] | inhibition at 200 ppm (Plasmopara viticola [3]) [%] | inhibition at 200 ppm (Phytophthora [4]) [%] | inhibition at 200 ppm (Phytophthora [5]) [%] | inhibition at 200 ppm (Phytophthora [6]) [%] |
| --- | --- | --- | --- | --- | --- | --- | --- |
| C#CCOc1ccc(CCNC(=O)C(Cl)c2ccc(Br)cc2)cc1OC (stereo not drawn) | 100 to 102 |  |  |  |  |  |  |
| C#CCOc1ccc(CCNC(=O)C(OCC#C)c2ccc(Br)cc2)cc1OC (stereo not drawn) [Compound E1.022, 2-(4-bromo-phenyl)-N-[2-(3-methoxy-4-prop-2-ynyloxy-phenyl)-ethyl]-2-prop-2-ynyloxy-acetamide] | 92 to 94 | 80 to 100 | 80 to 100 | 80 to 100 | 80 to 100 | 80 to 100 | 80 to 100 |
| C#CCOc1ccc(CCNC(=O)C(OCC#C)c2ccc(C)cc2)cc1OC (stereo not drawn) [Compound E1.045, 2-(4-tolyl)-N-[2-(3-methoxy-4-prop-2-ynyloxy-phenyl)-ethyl]-2-prop-2-ynyloxy-acetamide] | 81 to 82 | 80 to 100 | 80 to 100 | 80 to 100 | 80 to 100 | 80 to 100 | 80 to 100 |
| C#CCOc1ccc(CCNC(=O)C(OCC#C)c2ccc(F)c(Cl)c2)cc1OC (stereo not drawn) [Compound E1.090, 2-(3-chloro-4-fluoro-phenyl)-N-[2-(3-methoxy-4-prop-2-ynyloxy-phenyl)-ethyl]-2-prop-2-ynyloxy-acetamide] |  | 80 to 100 | 80 to 100 | 80 to 100 | 80 to 100 | 80 to 100 | 80 to 100 |
| C#CCOc1ccc(CCNC(=O)C(OCC#C)c2ccc(Cl)c(F)c2)cc1OC (stereo not drawn) [Compound E1.091, 2-(3-fluoro-4-chloro-phenyl)-N-[2-(3-methoxy-4-prop-2-ynyloxy-phenyl)-ethyl]-2-prop-2-ynyloxy-acetamide] |  | 80 to 100 | 80 to 100 | 80 to 100 | 80 to 100 | 80 to 100 | 80 to 100 |
| C#CCOc1ccc(CCNC(=O)C(OCC#C)c2ccc(Cl)c(Cl)c2)cc1OC (stereo not drawn) [Compound E1.102, 2-(3,4-dichloro-phenyl)-N-[2-(3-methoxy-4-prop-2-ynyloxy-phenyl)-ethyl]-2-prop-2-ynyloxy-acetamide] |  | 80 to 100 | 80 to 100 | 80 to 100 | 80 to 100 | 80 to 100 | 80 to 100 |
